This is an account of results in publication PMC9090388, “Design, synthesis, biological evaluation and QSAR analysis of novel N-substituted benzimidazole derived carboxamides” (Journal of Enzyme Inhibition and Medicinal Chemistry, 2022).

Experiment [1] can be described thus: Ferric reducing/antioxidant power (FRAP assay). It counts as biochemical. To be noted: triplicate; – = not active in the FRAP assay. On the procedure: The FRAP method was carried out according to previously described procedures with some modifications to be compatible with an assay on a 96-well microplate. All results were expressed as Fe^2+ equivalents (Fe^2+ µmol).

Experiment [2] can be described thus: DPPH free radical scavenging (reducing activity of the stable radical DPPH). It counts as biochemical. To be noted: DPPH 50 µM in absolute ethanol; – = did not show any DPPH activity. On the procedure: The reducing activity of investigated systems was achieved by the DPPH method according to previously described procedures with modifications to assure the use in a 96-well microplate. Briefly, equal volumes of various concentrations of tested molecules (dissolved in DMSO) were added to the solution of DPPH (final concentration 50 µM in absolute ethanol). Ethanol and DMSO were used as control solutions in line with earlier reports.[27]
On the technique in general: DPPH is a stable violet radical that fades when it is reduced.

Experiment [3] relates to HEK 293 (human embryonic kidney cells). Nature of the experiment: Antiproliferative/cytotoxic activity in vitro on non-tumour cells, MTT, 72 h. In kind it is cell-based. Particulars: Homo sapiens, HEK293; non-tumour cell line; concentration that causes 50% growth inhibition; 72 h, MTT. On the procedure:
(§1) The experiments were performed on four human cell lines, including HCT 116 (colon carcinoma), H 460 (lung carcinoma), MCF-7 (breast carcinoma) and HEK 293 (human embryonic kidney cells), in line with previously published experimental procedures[10]^,[25]. Briefly, the cells were grown in DMEM medium with the addition of 10% foetal bovine serum (FBS), 2 mM L-glutamine, 100 U/mL penicillin and 100 µg/mL streptomycin, and cultured as monolayers at 37 °C in a humidified atmosphere with 5% CO2. Cells were seeded at 2 × 10^3 cells/well in a standard 96-well microtiter plates and left to attach for 24 h. Next day, a test compound was added in five serial 10-fold dilutions. The rate of cell growth was evaluated after 72 h of incubation with MTT reagent. The obtained results are expressed as IC50 values, calculated from the concentration-response curves using linear regression analysis by fitting the test concentrations that give PG values above and below the reference value (i.e. 50%). Each test was performed in quadruplicate in at least two individual experiments.

The test system of the next experiment is MCF-7 (breast carcinoma). Put plainly: Antiproliferative activity in vitro, MTT, 72 h. It counts as cell-based. To be noted: Homo sapiens, MCF7, concentration that causes 50% growth inhibition. How it is done:
as §1

A further experiment relates to HCT116 (colon carcinoma). Put plainly: Antiproliferative activity in vitro, MTT, 72 h. In kind it is cell-based. Particulars: Homo sapiens, HCT-116, 72 h, concentration that causes 50% growth inhibition. On the procedure:
as §1

The next experiment concerns H 460 (lung carcinoma). Put plainly: Antiproliferative activity in vitro, MTT, 72 h. It counts as cell-based, human. Particulars: for IC50: Homo sapiens, NCI-H460, 72 h, concentration that causes 50% growth inhibition, 72 h, MTT; for selectivity of antiproliferative activity among cell lines: H 460 versus HCT116, MCF-7, HEK 293. How it is done:
as §1

“And” between values parts separate entries of the source, which are not always exact repeats. Equal values may be shown once.

On to `COc1ccc(C(=O)Nc2nc3ccccc3[nH]2)c(OC)c1` [Compound 26, N-(1H-Benzo[d]imidazol-2-yl)-2,4-dimethoxybenzamide], for which, in experiment [1], the FRAP turned out to be 166.61 ± 9.51 mmolFe^2+/mmolC. Moreover, inhibition in experiment [2] was half-maximal at 41700 ± 1510 µM (IC50).
In turn, `COc1cc(C(=O)Nc2nc3ccc(C#N)cc3n2CC(C)C)cc(OC)c1OC` [Compound 43, N-(6-Cyano-1-isobutyl-1H-benzo[d]imidazol-2-yl)-3,4,5-trimethoxybenzamide] displayed an FRAP in experiment [1] of 243.30 ± 3.39 mmolFe^2+/mmolC. Moreover, the 50% inhibitory concentration (IC50) in experiment [3] is 4.7 ± 1 µM; in the experiment on MCF-7 (breast carcinoma) it was 3.1 ± 1.7 µM; in the experiment on HCT116 (colon carcinoma), approximately 0.6 µM.
`COc1cc(C(=O)Nc2nc3ccccc3n2CC(C)C)cc(OC)c1OC` [Compound 39, N-(1-Isobutyl-1H-benzo[d]imidazol-2-yl)-3,4,5-trimethoxybenzamide] registered an FRAP in experiment [1] of 217.20 ± 3.69 mmolFe^2+/mmolC. Moreover, the half-inhibitory concentration (IC50) in experiment [3] stood at 2 ± 0.9 µM; in experiment [2], 4920 ± 130 µM; with MCF-7 (breast carcinoma) it was 4.6 ± 1.4 µM; in the experiment on HCT116 (colon carcinoma), 3.1 ± 0.7 µM; with H 460 (lung carcinoma) it was 1.7 ± 0.1 µM.
Compound `COc1cc(C(=O)Nc2nc3ccccc3n2C)cc(OC)c1OC` [Compound 31, 3,4,5-Trimethoxy-N-(1-methyl-1H-benzo[d]imidazol-2-yl)benzamide] came in with an FRAP in experiment [1] of 124.28 ± 1.23 mmolFe^2+/mmolC. Further, the concentration for half-maximal inhibition (IC50) in experiment [3] was 21.7 ± 9.4 µM; in experiment [2] it was 6040 ± 290 µM; in the experiment with MCF-7 (breast carcinoma) it was 23.8 ± 12.4 µM; in the experiment with HCT116 (colon carcinoma) it was 18.1 ± 1.4 µM; in the experiment on H 460 (lung carcinoma), 17.7 ± 0.8 µM.
The compound `COc1ccc(C(=O)Nc2nc3ccc(C#N)cc3n2-c2ccccc2)c(OC)c1` [Compound 50, N-(6-Cyano-1-phenyl-1H-benzo[d]imidazol-2-yl)-2,4-dimethoxybenzamide] yielded an FRAP in experiment [1] of 506.70 ± 7.46 mmolFe^2+/mmolC.
Take `O=C(Nc1nc2ccccc2n1-c1ccccc1)c1ccccc1` [Compound 44, N-(1-Phenyl-1H-benzo[d]imidazol-2-yl)benzamide]: the FRAP in experiment [1] was 184.70 ± 3.22 mmolFe^2+/mmolC.
Take `Cn1c(NC(=O)c2ccccc2)nc2ccccc21` [Compound 28, N-(1-Methyl-1H-benzo[d]imidazol-2-yl)benzamide]: the FRAP in experiment [1] is 538.81 mmolFe^2+/mmolC and 358.81 ± 4.83 mmolFe^2+/mmolC. In addition, the IC50 was 29.5 ± 12.5 µM in experiment [3]; ~3780 µM and 3780 µM in experiment [2]; 11.9 ± 7.5 µM in the experiment with MCF-7 (breast carcinoma); 18.7 ± 5.1 µM in the experiment with HCT116 (colon carcinoma); 10.7 ± 2.3 µM in the experiment on H 460 (lung carcinoma).
For `COc1ccccc1C(=O)Nc1nc2ccccc2n1C` [Compound 29, 2-Methoxy-N-(1-methyl-1H-benzo[d]imidazol-2-yl)benzamide], the FRAP in experiment [1] is listed as 110.16 ± 1.44 mmolFe^2+/mmolC. Moreover, inhibition in experiment [2] was half-maximal at 6050 ± 1030 µM (IC50).
As for `COc1ccccc1C(=O)Nc1nc2ccccc2n1-c1ccccc1` [Compound 45, 2-Methoxy-N-(1-phenyl-1H-benzo[d]imidazol-2-yl)benzamide], the IC50 in experiment [2] was found to be 8710 ± 340 µM.
In turn, `Cn1c(NC(=O)c2ccccc2)nc2ccc(C#N)cc21` [Compound 32, N-(6-Cyano-1-methyl-1H-benzo[d]imidazol-2-yl)benzamide] registered an FRAP in experiment [1] of 160.27 ± 16.35 mmolFe^2+/mmolC.
Turning to `COc1cc(C(=O)Nc2nc3ccccc3[nH]2)cc(OC)c1OC` [Compound 27, N-(1H-Benzo[d]imidazol-2-yl)-3,4,5-trimethoxybenzamide], the FRAP in experiment [1] came out at 5.59 ± 0.62 mmolFe^2+/mmolC. The IC50 in experiment [3] was 23.6 ± 4.4 µM; in experiment [2], 6820 ± 410 µM; in the experiment on MCF-7 (breast carcinoma), 32.8 ± 15.6 µM; in the experiment with HCT116 (colon carcinoma), 23.1 ± 15 µM; with H 460 (lung carcinoma) it was 17.6 ± 6.7 µM.
Take `COc1cc(C(=O)Nc2nc3ccc(C#N)cc3n2-c2ccccc2)cc(OC)c1OC` [Compound 51, N-(6-Cyano-1-phenyl-1H-benzo[d]imidazol-2-yl)-3,4,5-trimethoxybenzamide]: the FRAP in experiment [1] came out at 132.56 ± 18.06 mmolFe^2+/mmolC. The IC50 in experiment [3] came to 61.1 ± 35.7 µM; in the experiment on MCF-7 (breast carcinoma), 29.4 ± 19.4 µM; with HCT116 (colon carcinoma), 30.1 ± 13.2 µM; in the experiment with H 460 (lung carcinoma), 4.53 ± 7.3 µM. Besides, the “selectivity of antiproliferative activity among cell lines” value with H 460 (lung carcinoma) is “selective activity against H 460”.
In experiment [1], `COc1cc(C(=O)Nc2nc3ccccc3n2-c2ccccc2)cc(OC)c1OC` [Compound 47, 3,4,5-Trimethoxy-N-(1-pheny-1H-benzo[d]imidazol-2-yl)benzamide] had an FRAP of 236.90 ± 1.50 mmolFe^2+/mmolC. In addition, the IC50 in experiment [3] turned out to be 5.3 ± 2.4 µM; with MCF-7 (breast carcinoma) it was 2.9 ± 1.3 µM; in the experiment on HCT116 (colon carcinoma), 1.6 ± 0.9 µM; in the experiment with H 460 (lung carcinoma) it was 0.8 ± 1.5 µM. Also, the “selectivity of antiproliferative activity among cell lines” value in the experiment on H 460 (lung carcinoma) is recorded as “selective activity against H 460”.
In experiment [1], `COc1ccccc1C(=O)Nc1nc2ccc(C#N)cc2n1-c1ccccc1` [Compound 49, N-(6-Cyano-1-phenyl-1H-benzo[d]imidazol-2-yl)-2-methoxybenzamide] came in with an FRAP of 221.31 ± 27.39 mmolFe^2+/mmolC. Further, the 50% inhibitory concentration (IC50) in experiment [2] is 29900 ± 1300 µM.
As to `COc1ccccc1C(=O)Nc1nc2ccccc2[nH]1` [Compound 25, N-(1H-Benzo[d]imidazol-2-yl)-2-methoxybenzamide], the midpoint of inhibition in experiment [2], the IC50, lay at 75700 ± 6080 µM.
Same read-out and setting: the figure for `COc1ccc(C(=O)Nc2nc3ccc(C#N)cc3n2CC(C)C)c(OC)c1` [Compound 42, N-(6-Cyano-1-isobutyl-1H-benzo[d]imidazol-2-yl)-2,4-dimethoxybenzamide] is 5350 ± 70 µM.
Turning to `N#Cc1ccc2nc(NC(=O)c3ccccc3)n(-c3ccccc3)c2c1` [Compound 48, N-(6-Cyano-1-phenyl-1H-benzo[d]imidazol-2-yl)benzamide], in experiment [1], the FRAP came to 138.98 ± 32.68 mmolFe^2+/mmolC.
In turn, `CC(C)Cn1c(NC(=O)c2ccccc2)nc2ccccc21` [Compound 36, N-(1-Isobutyl-1H-benzo[d]imidazol-2-yl)benzamide] had an FRAP in experiment [1] of 179.70 ± 23.42 mmolFe^2+/mmolC. The IC50 in experiment [3] came to 5.9 ± 2.4 µM; in experiment [2], 4510 ± 20 µM; in the experiment on MCF-7 (breast carcinoma), 2.7 ± 1.9 µM; in the experiment on HCT116 (colon carcinoma), 3.8 ± 0.9 µM; with H 460 (lung carcinoma), 5.1 ± 2.6 µM.
The compound `COc1ccc(C(=O)Nc2nc3ccccc3n2-c2ccccc2)c(OC)c1` [Compound 46, 2,4-Dimethoxy-N-(1-phenyl-1H-benzo[d]imidazol-2-yl)benzamide] returned an IC50 in experiment [2] of 8480 ± 710 µM.
In experiment [1], `COc1ccccc1C(=O)Nc1nc2ccc(C#N)cc2n1CC(C)C` [Compound 41, N-(6-Cyano-1-isobutyl-1H-benzo[d]imidazol-2-yl)-2-methoxybenzamide] returned an FRAP of 154.30 ± 5.67 mmolFe^2+/mmolC. The IC50 in experiment [2] was 4580 ± 150 µM.
`COc1ccccc1C(=O)Nc1nc2ccccc2n1CC(C)C` [Compound 37, N-(1-Isobutyl-1H-benzo[d]imidazol-2-yl)-2-methoxybenzamide] came in with an IC50 in experiment [2] of 10550 ± 30 µM.
In the case of `COc1cc(C(=O)Nc2nc3ccc(C#N)cc3n2C)cc(OC)c1OC` [Compound 35, N-(6-Cyano-1-methyl-1H-benzo[d]imidazol-2-yl)-3,4,5-trimethoxybenzamide], the FRAP in experiment [1] came to 338.50 ± 21.56 mmolFe^2+/mmolC. Moreover, the IC50 in experiment [3] is 12.3 ± 1.5 µM; in the experiment with MCF-7 (breast carcinoma), 5.5 ± 3.2 µM; in the experiment on HCT116 (colon carcinoma), 5.2 ± 4.2 µM; with H 460 (lung carcinoma) it was 3.9 ± 0.9 µM.
For `Cc1cc(C(C)(C)C)c(O)c(C(C)(C)C)c1` [BHT, butylated hydroxytoluene, reference compound], in experiment [1], the FRAP came to 679.15 mmolFe^2+/mmolC.
For the compound `COc1cc([C@@H]2c3cc4c(cc3[C@@H](O[C@@H]3O[C@@H]5CO[C@@H](C)O[C@H]5[C@H](O)[C@H]3O)[C@H]3COC(=O)[C@H]23)OCO4)cc(OC)c1O` [Etoposide, reference compound], the IC50 with MCF-7 (breast carcinoma) worked out at 1 ± 0.7 µM; with HCT116 (colon carcinoma), 5 ± 2 µM; with H 460 (lung carcinoma), 0.1 ± 0.04 µM.
`COc1ccc(C(=O)Nc2nc3ccccc3n2CC(C)C)c(OC)c1` [Compound 38, N-(1-Isobutyl-1H-benzo[d]imidazol-2-yl)-2,4-dimethoxybenzamide]: in experiment [1], the FRAP is recorded as 5.80 ± 0.15 mmolFe^2+/mmolC. The compound also registered an IC50 in experiment [2] of 26580 ± 20 µM.
In experiment [2], `COc1ccc(C(=O)Nc2nc3ccccc3n2C)c(OC)c1` [Compound 30, 2,4-Dimethoxy-N-(1-methyl-1H-benzo[d]imidazol-2-il)benzamide] displayed an IC50 of 49600 ± 18400 µM.

As usually defined, the IC50 is the midpoint of a concentration-inhibition curve.
